From patent publication US20130029964A1, “[5, 6] HETEROCYCLIC COMPOUND” (DAIICHI SANKYO COMPANY, LIMITED, priority 2010, published 2013) come the findings set out here.

The subject of the assay is ST2 cells, murine bone marrow-derived stromal cells. In words: Osteoblast differentiation test (ALP activity). It counts as cell-based. Conditions: Mus musculus, ST-2, 96 h, at 0.1 μg/mL, control group (0.1% DMSO) = 100%, four days of culturing, read-out: alkaline phosphatase activity. As for the experimental part:
ST2 cells, murine bone marrow-derived stromal cells, (obtained from RIKEN) were used.
In this test, α-MEM media (obtained from GIBCO BRL Cat. No. 10370-021) containing 10% (v/v) of inactivated calf serum (obtained from Hyclone Laboratories, Inc.) and 1% (v/v) of Penicillin-Streptomycin Liquid (obtained from GIBCO BRL Cat. No. 15140-122) (hereinbelow, abbreviated as 10%-FBS-αMEM) were used. In this test, all culturing was performed in a CO2 incubator (37° C., 95% humidity, 5% CO2).
The aforementioned cells were detached with 2 mL of a 0.25% trypsin solution (obtained from GIBCO BRL Cat. No. 15050-065) and dispersed in 10 mL of 10%-FBS-αMEM. Subsequently, the cells were collected by centrifugation (25° C., 800 rpm, five minutes). Then, a cell suspension containing 40000 of the cells/mL of 10%-FBS-αMEM was prepared. The cell suspension was then dispensed into 96-well plates (the product of Falcon), 100 μL per well, at a density of 4000 cells/well, followed by culturing for 24 hours. To the wells, except for the below-described well containing a control group, the compound was dispensed at final concentrations of 0.01, 0.03, 0.1, and 0.3 μg/ml. To the well of a control group, DMSO was dispensed at a final concentration of 0.1% (v/v). After four days of culturing, the activity of alkaline phosphatase (ALP) was measured in each group.
The measurement of ALP activity was performed as follows. That is, the medium in each well of the culture plates was completely removed. Each well was then washed by dispensing 100 μL of Dulbecco's phosphate buffer (obtained from GIBCO BRL Cat. No. 14190-144) and then removing it. A cell lysate solution containing 10 mM MgCl2 and 2% (v/v) TritonX-100 (Sigma) was prepared and dispensed at 50 μL/well, followed by stirring at room temperature for five minutes. An ALP substrate solution containing 50 mM diethanolamine (Wako Pure Chemical Industries, Ltd., Cat. No. 099-03112) and 20 mM p-nitrophenyl phosphate (Wako Pure Chemical Industries, Ltd., Cat. No. 147-02343) was prepared and dispensed at 50 μL/well, and the plates were left to stand at room temperature for 10 minutes. Subsequently, absorbance was measured by a microplate reader (Bio-Rad Laboratories, Inc.). Setting the measurement value of the control group of each plate at 100%, alkaline phosphatase activity (increase (%)) in the test compound-addition group was calculated, which was assessed as the degree of osteoblast differentiation.
As to `c1cc(-c2ccc3ncc(-c4ccc(NCCOC5CCOCC5)cc4)n3c2)ccn1` [Example 142], the activity at 0.1 µg/mL was at least 200%.

With `OCCOc1ccc(-c2cnc3ccc(F)cn23)cc1` [Example 7, 2-[4-(6-Fluoroimidazo[1,2-a]pyridin-3-yl)phenoxy]ethanol], the activity at 0.1 µg/mL was at least 200%.

Consider `O=C(c1ccc(-c2ccn3c(-c4ccc(OCCOC5CCOCC5)cc4)cnc3c2)cn1)N1CCOCC1` [Example 133], for which the activity at 0.1 µg/mL is at least 200%.

Take `c1cc(-c2ccc3ncc(-c4ccc(OCCOC5CCOCC5)cc4)n3c2)ccn1` [Example 141]: the activity at 0.1 µg/mL was at least 200%.

For the compound `CN(C)S(=O)(=O)c1ccc(-c2ccn3c(-c4ccc(OCCO)cc4)cnc3c2)cc1` [Example 134], the activity at 0.1 µg/mL was at least 200%.

Turning to `Clc1ccc2ncc(-c3ccc(NCCOC4CCOCC4)cc3)n2c1` [Example 135], the activity at 0.1 µg/mL was at least 200%.

Consider `COc1ccc2ncc(-c3ccc(OCCOC4CCOCC4)cc3)n2c1` [Example 20, 6-Methoxy-3-{4-[2-(tetrahydro-2H-pyran-4-yloxy)ethoxy]phenyl}imidazo[1,2-a]pyridine], for which the activity at 0.1 µg/mL is at least 200%.

On to `O=C(C1CC1)N1CCC(OCCOC2CCN(c3cnc4ccc(-c5ccncc5)cn34)CC2)CC1` [Example 140], for which the activity at 0.1 µg/mL is at least 200%.

With `OCCNc1ccc(-c2cnn3ccccc23)cc1` [Example 122], the activity at 0.1 µg/mL was at least 200%.

Turning to `CC(C)(C)OC(=O)NCCOc1ccc(-n2cnc3ccccc32)cc1` [Example 99], the activity at 0.1 µg/mL was at least 200%.

In the case of `O=C(c1ccc(-c2ccn3c(N4CCC(OCCOC5CCOCC5)CC4)cnc3c2)cc1)N1CCOCC1` [Example 17, 7-[4-(Morpholin-4-ylcarbonyl)phenyl]-3-{4-[2-(tetrahydro-2H-pyran-4-yloxy)ethoxy]piperidin-1-yl}imidazo[1,2-a]pyridine], the activity at 0.1 µg/mL was at least 200%.

Regarding `OCCOc1ccc(-n2cnc3cc(-c4cc[nH]c4)ccc32)cc1` [Example 57], the activity at 0.1 µg/mL is at least 200%.
